Laboratory results from ChEMBL document CHEMBL1201862, “PubChem BioAssay data set” (2004).
Activity calls are given as the source filed them.

Assays:
[1] = molecular target: T1, Carboxy-terminal domain RNA polymerase II polypeptide A small phosphatase 1 (Homo sapiens, UniProt Q9GZU7); assay: inhibitors of CTDSP1, concentration-response testing, biochemical assay, absorbance-based, actives from ultra-high-throughput screening (AID 540297); type: functional
T1 sequence (Q9GZU7 whole entry): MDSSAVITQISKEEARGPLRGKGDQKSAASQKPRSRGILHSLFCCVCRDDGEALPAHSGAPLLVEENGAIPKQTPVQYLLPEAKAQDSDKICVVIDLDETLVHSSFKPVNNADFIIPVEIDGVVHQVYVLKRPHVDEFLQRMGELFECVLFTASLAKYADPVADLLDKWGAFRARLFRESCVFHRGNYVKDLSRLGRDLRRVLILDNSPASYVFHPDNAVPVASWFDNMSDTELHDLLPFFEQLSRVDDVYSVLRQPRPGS

[2] = molecular target: T2, Low molecular weight phosphotyrosine protein phosphatase (Homo sapiens, UniProt P24666); type: functional; details: read-out: IC50_Mean;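 also: Dose-response confirmation assay measuring inhibition of LMPTP enzyme activity by fluorescence intensity read-out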
T2 sequence (P24666 whole entry): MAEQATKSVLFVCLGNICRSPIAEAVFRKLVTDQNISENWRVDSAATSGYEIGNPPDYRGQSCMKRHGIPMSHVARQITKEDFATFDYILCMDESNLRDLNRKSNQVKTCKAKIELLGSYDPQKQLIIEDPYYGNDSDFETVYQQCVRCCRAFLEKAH

[3] = molecular target: Protein Wnt-3a (Mus musculus, UniProt P27467); assay: Wnt3a-driven reporter signaling inhibition, dose response, selectivity assay for Gli-SUFU antagonist project, Wnt-LIGHT cells, luminescence (AID 651570); type: functional; details: read-out: IC50_Mean;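 also: Wnt-LIGHT reporter cells stimulated with conditioned medium from Wnt3a-producing cells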
[4] = CRF-BP/CRF-R2 complex antagonists, dose response, cell-based, uHTS hits, 384-well (AID 651639); type: functional, Homo sapiens; details: read-out: IC50_Mean
[5] = molecular target: T3, Corticotropin-releasing factor receptor 2/Corticotropin-releasing factor-binding protein (Homo sapiens, UniProt P24387+Q13324); assay: activators of CRF receptor 2 with binding protein – uHTS hits, confirmation (AID 602473); type: functional; details: read-out: EC50_Mean
T3 sequence (Q13324 whole entry): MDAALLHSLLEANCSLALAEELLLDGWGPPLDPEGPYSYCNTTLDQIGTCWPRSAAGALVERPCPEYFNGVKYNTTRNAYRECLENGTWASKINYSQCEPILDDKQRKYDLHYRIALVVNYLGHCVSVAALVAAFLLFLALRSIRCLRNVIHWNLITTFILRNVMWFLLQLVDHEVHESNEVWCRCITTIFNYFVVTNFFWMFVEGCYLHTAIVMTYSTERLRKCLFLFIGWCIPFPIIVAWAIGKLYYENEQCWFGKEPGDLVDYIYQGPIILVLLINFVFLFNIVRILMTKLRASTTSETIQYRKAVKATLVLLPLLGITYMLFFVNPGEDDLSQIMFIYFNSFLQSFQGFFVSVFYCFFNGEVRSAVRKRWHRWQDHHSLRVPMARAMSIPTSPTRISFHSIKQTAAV
T3 sequence (P24387 whole entry): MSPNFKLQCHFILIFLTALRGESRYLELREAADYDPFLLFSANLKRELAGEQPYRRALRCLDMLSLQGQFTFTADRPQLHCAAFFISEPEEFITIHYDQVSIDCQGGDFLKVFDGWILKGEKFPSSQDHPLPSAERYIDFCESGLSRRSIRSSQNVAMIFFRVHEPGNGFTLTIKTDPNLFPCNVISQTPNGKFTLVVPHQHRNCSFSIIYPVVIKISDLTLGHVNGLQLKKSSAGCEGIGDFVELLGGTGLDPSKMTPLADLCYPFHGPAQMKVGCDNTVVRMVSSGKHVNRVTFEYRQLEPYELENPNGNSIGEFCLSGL

[6] = molecular target: T3, Corticotropin-releasing factor receptor 2/Corticotropin-releasing factor-binding protein; assay: Dose Response confirmation of uHTS hits for small molecule antagonists of the CRF-binding protein and CRF-R2 receptor complex.; type: functional; details: read-out: IC50_Mean
[7] = molecular target: Major prion protein (Homo sapiens, UniProt P04156); type: functional, cell-based
[8] = cells
[9] = cytotoxicity in HEK-293T cells, dose response, cytotoxicity control for TCR NF-kB inhibitor project, luminescence, T-cell screen hits (AID 489026); type: functional, cell-based;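 also: cells exposed to compound about 14 hours before the viability readout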
[10] = molecular target: Prothrombin (Homo sapiens, UniProt P00734); assay: Thrombin 1536 HTS Dose Response Confirmation. [Related pubchem assays: 1046 (Thrombin 1536 HTS; hits were confirmed in this assay)]; type: functional
[11] = molecular target: NAD-dependent protein deacylase sirtuin-5, mitochondrial (Homo sapiens, UniProt Q9NXA8); assay: SIRT5 desuccinylase inhibitors, dose response, biochemical, fluorescence imaging, cherry-pick, set 5 (AID 720591);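 also: desuccinylation of succinyl peptide AMC substrate read as fluorescence after trypsin release; potency of inhibitors that lower fluorescence and may act on trypsin instead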
[12] = tested on: HEK293; assay: cells; type: functional, cell-based; details: Homo sapiens
[13] = molecular target: T4, Heat shock factor protein 1 (Mus musculus, UniProt P38532); assay: inhibition of MG132-induced HSE-luciferase signal, confirmation, cell-based, NIH3T3, luminescence, dose retest (AID 2382); type: functional;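 also: NIH3T3 fibroblasts with HSF1-driven luciferase reporter stressed by proteasome inhibitor MG132; luminescence from HSF1-driven luciferase expression after 8 hours of MG132 stress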
T4 sequence (P38532 whole entry): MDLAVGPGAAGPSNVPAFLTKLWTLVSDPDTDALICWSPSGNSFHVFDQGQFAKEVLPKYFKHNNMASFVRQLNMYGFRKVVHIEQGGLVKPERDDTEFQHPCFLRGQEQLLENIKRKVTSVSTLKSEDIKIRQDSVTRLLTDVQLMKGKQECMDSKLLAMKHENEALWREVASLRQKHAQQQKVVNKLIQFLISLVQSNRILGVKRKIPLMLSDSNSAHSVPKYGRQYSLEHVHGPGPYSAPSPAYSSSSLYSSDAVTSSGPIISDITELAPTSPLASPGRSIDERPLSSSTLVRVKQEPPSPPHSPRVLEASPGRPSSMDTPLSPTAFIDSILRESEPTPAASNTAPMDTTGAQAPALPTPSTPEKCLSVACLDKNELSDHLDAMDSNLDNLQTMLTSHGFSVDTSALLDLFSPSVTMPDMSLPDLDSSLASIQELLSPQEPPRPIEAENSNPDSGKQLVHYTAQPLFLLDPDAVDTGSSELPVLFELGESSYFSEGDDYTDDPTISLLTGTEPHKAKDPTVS

[14] = molecular target: T5, Nuclear receptor subfamily 0 group B member 1 (Homo sapiens, UniProt P51843); assay: Luminescence-based cell-based high throughput dose response assay for inhibitors of the orphan nuclear receptor subfamily 0, group B, member 1 (DAX1; NR0B1). [Related pubchem assays (depositor defined):AID504766, AID504790]; type: functional
T5 sequence (P51843 whole entry): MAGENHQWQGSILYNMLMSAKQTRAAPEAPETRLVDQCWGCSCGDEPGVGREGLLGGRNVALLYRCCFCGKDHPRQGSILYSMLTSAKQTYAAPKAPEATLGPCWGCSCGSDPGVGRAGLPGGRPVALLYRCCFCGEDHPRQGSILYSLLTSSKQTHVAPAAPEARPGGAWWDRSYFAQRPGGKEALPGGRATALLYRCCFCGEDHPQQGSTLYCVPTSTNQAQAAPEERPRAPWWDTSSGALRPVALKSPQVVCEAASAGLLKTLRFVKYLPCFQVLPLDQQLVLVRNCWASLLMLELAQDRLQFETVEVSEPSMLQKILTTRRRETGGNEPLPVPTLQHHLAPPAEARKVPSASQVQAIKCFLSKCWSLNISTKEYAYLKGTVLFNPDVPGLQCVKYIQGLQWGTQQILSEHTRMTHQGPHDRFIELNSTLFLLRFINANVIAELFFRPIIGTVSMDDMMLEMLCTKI

[15] = molecular target: Peroxisome proliferator-activated receptor gamma/Nuclear receptor coactivator 1 (Homo sapiens, UniProt P37231); assay: (§1) TR-FRET dose response biochemical High Throughput Screening assay for agonists of the steroid receptor coactivator 1 (SRC-1) recruitment by the peroxisome proliferator-activated receptor gamma (PPAR gamma): non-selective agonists. [Related pubchem assays (depositor defined):AID1300, AID1808, AID504735, AID631]; type: protein assay
[16] = molecular target: Peroxisome proliferator-activated receptor gamma/Nuclear receptor coactivator 3 (Homo sapiens, UniProt P37231); assay: as §1, with “3 (SRC-3)” for “1 (SRC-1)”, “assays: 1301 (Confirmation screen.), 1048 (Primary screen.)]” for “assays (depositor defined):AID1300, AID1808, AID504735, AID631]”; type: functional
[17] = molecular target: FAD-linked sulfhydryl oxidase ALR (Homo sapiens, UniProt P55789); assay: inhibitors of human ALR sulfhydryl oxidase, dose response, biochemical, H2O2 detection, luminescence, cherry-pick (AID 493248)
[18] = molecular target: Peroxisome proliferator-activated receptor gamma/Nuclear receptor coactivator 2 (Homo sapiens, UniProt P37231); assay: TR-FRET dose response biochemical High Throughput Screening assay for agonists of the steroid receptor coactivator 2 (SRC-2) recruitment by the peroxisome proliferator-activated receptor gamma (PPAR gamma): non-selective agonists. [Related pubchem assays: 1297, 1032 ]; type: functional

For `O=C(/C=C/c1cccc([N+](=O)[O-])c1)Nc1ccc(NC(=O)c2cccs2)cc1`, the IC50 [1] was 4.11 µM (active) and the IC50 [2] was 27.3 µM (inactive).
With `CCCCOc1ccc(N2C(N)=NC(N)=NC23CCCCC3)cc1` the IC50 [3] was 18.3 µM (active).
For `CC(C)c1cc(C(F)(F)F)nc(NNc2nc(C(C)C)cc(C(F)(F)F)n2)n1`, the IC50 [4] was > 20 µM (inactive), the EC50 [5] was > 53 µM (inactive) and the IC50 [6] was 0.988 µM (active).
In the case of `COc1cc(C(=O)Nc2ccc3c(c2)ncn3C)cc(OC)c1OC`, the IC50 [7] is reported as 6.23 µM (active), the IC50 [8] is reported as > 138 µM (inactive) and the IC50 [9] is reported as > 80 µM (inactive).
For `CCOC(=O)N1CCN(C(=O)C2CCCN(S(=O)(=O)c3cc(C)ccc3OC)C2)CC1` (centres undefined), the IC50 [10] was > 50 µM (not active).
With `Cc1cc(C2C(=O)c3ccccc3C2=O)c(C)c(C)c1C` the AC50 [11] was > 30 µM (inactive).
In the case of `CC1(C)Cc2c(sc3nc(C4CC4)n(N)c(=O)c23)CO1`, the IC50 [12] is reported as > 67.6 µM (inactive), the EC50 [13] is reported as > 195 µM (not active) and the IC50 [14] is reported as > 67.6 µM (inactive).
In the case of `CCN1C(=O)C2(C(C(=O)c3cc4ccccc4o3)=C(O)C(=O)N2CCCN2CCOCC2)c2ccccc21` (centres undefined), the IC50 [7] is reported as 2.08 µM (active) and the IC50 [8] is reported as > 138 µM (inactive).
For `CCc1c(C)nc2c(Br)cccc2c1SCCC#N`, the AC50 [11] was > 30 µM (inactive), the IC50 [7] was 2.52 µM (active) and the IC50 [8] was > 138 µM (inactive).
With `COc1ccc(Br)cc1-c1nc(CCl)cs1` the EC50 [15] was 9.93 µM (active), the EC50 [16] was > 79.4 µM (not active) and the AC50 [17] was 14.1 µM (active). The EC50 [18] was 5.52 µM (active).
For `CC(C)Sc1snnc1-c1ccccc1`, the IC50 [4] was > 20 µM (inactive), the EC50 [5] was > 53 µM (inactive) and the IC50 [6] was < 0.368 µM (active).
For `CC(Sc1nc(N2CCCCC2)c2c(c1C#N)CCCC2)C(=O)O` (centres undefined), the EC50 [15] was 33.9 µM (inactive), the EC50 [16] was > 79.4 µM (not active) and the EC50 [18] was 64.9 µM (not active).
